Source: patent US5710157A, “2,4-diamino-5,6-disubstituted-and 5,6,7-trisubstituted-5-deazapteridines as insecticides” (FMC Corporation, priority 1996, dated 1998)

Tested on: tobacco budworm (Heliothis virescens [Fabricius])
Experiment: diet test: insect growth inhibition and mortality, tobacco budworm larvae, 5-day exposure
Format: in vivo
Settings: second instar larvae
Procedure: The 5-deazapteridine of the present invention were incorporated into an artificial diet for evaluation of insecticidal activity against the tobacco budworm (Heliothis virescens [Fabricius]).
Stock solutions of test chemical in dimethyl sulfoxide were prepared for each rate of application. The rates of application, expressed as the negative log of the molar concentration, and the corresponding concentrations of the stock solution prepared for each rate are shown below:
One hundred microliters of each of the stock solutions was manually stirred into 50 mL of a molten (65°-70° C.) wheat germ-based artificial diet. The 50 mL of molten diet containing the test chemical was poured evenly into twenty wells in the outer four rows of a twenty-five well, five row plastic tray. Each well in the tray was about 1 cm in depth, with an opening of 3 cm by 4 cm at the lip. Molten diet containing only dimethyl sulfoxide at the levels used in the test chemical-treated diet was poured into the five wells in the third row of the tray. Each tray therefore contained one test chemical at a single rate of application, together with an untreated control.
Single second instar tobacco budworm larvae were placed in each well. The larvae were selected at a stage of growth at which they uniformly weigh about 5 mg each. Upon completion of infestation, a sheet of clear plastic was heat-sealed over the top of the tray using a common household flat iron. The trays were held at 25° C. at 60% relative humidity for five days in a growth chamber. Lighting was set at 14 hours of light and 10 hours of darkness.
After the 5-day exposure period, mortality counts were taken, and the surviving insects were weighed. From the weights of the surviving insects that fed on the treated diet as compared to those insects that fed on the untreated diet, the percent growth inhibition caused by each test chemical was determined. […] Where possible, the negative log of the concentration of the test chemical that provided 50% mortality (pLC50) was also determined.
The compounds of the present invention were tested in the diet test as insect growth inhibitors against the larvae of tobacco budworm (above).

COc1ccc(OC)c(Cc2cnc3nc(N)nc(N)c3c2C)c1 [Compound 90, 2,4-diamino-5-methyl-6-(2,5-dimethoxyphenylmethyl)-5-deazapteridine]
IC50 (Heliothis virescens, 120 h, artificial diet, linear regression, read-out: pI50: negative log of the concentration that provides 50% growth inhibition (converted)): 1000 nM | Percent Growth Inhibition (rate of application 4 (negative log of molar concentration in diet)): 95% | Percent Growth Inhibition (rate of application 5 (negative log of molar concentration in diet)): 87% | Percent Growth Inhibition (rate of application 6 (negative log of molar concentration in diet)): 41% | Percent Growth Inhibition (rate of application 7 (negative log of molar concentration in diet)): 26%
